The text below walks through data of patent US20250213603A1, “PHARMACEUTICAL COMPOSITION FOR TREATING CANCER” (SAGA UNIVERSITY, priority 2021, published 2025).

For data set [1], the system named is K562. The data set can be described thus: Effect of autophagy inhibition on the cell proliferation inhibitory effect. Format: cell-based. Particulars: 5 mM FA-HP-β-CyD or 15 mM HP-β-CyD, chloroquine, bafilomycin A1 or LY294002 (FIG. 8). How it is done:
(§1) The effect of autophagy inhibition on the cell proliferation inhibitory effect was evaluated as follows.
(§2) Leukemia cell lines (K562 and BV173) were used in this example. The FA-HP-β-CyD synthesized in Example 1 was used.
(§3) 2×10^5 of each cell with 100 μL RPMI1640 medium (Sigma-Aldrich, USA) was seeded per well to a flatbottom 96-well plate (Greiner Labortechnik, Hamburg, Germany), and treatment was carried out for 2 hours at 37° C. with 5 mM FA-HP-β-CyD and 15 mM HP-β-CyD. Pretreatment was then carried out for 24 hours with the autophagy inhibitors chloroquine (20 μM) (FUJIFILM Wako Pure Chemical Corporation), bafilomycin A1 (1 nM) (Funakoshi), or LY294002 (50 μM) (FUJIFILM Wako Pure Chemical Corporation). Cell proliferation was then evaluated using a Cell Counting Kit-8 (Dojindo, Japan), which is a modified dimethyl-thiazole-diphenyl-tetrazolium (MTT) assay.
(§4) Here, the “CT” in FIG. 8 was evaluated as follows. Thus, 2×10^5 of each cell with 100 μL RPMI1640 medium was seeded per well to a flatbottom 96-well plate and culture was carried out for 2 hours+24 hours as in the exposure groups, but without exposure to the agent or autophagy inhibitor, and this was used as the CT. This CT was compared with the exposure groups.
(§5) Significant difference was determined as follows. That is, the data were analyzed using a two-sided Student's t-test without a comparison table. A value of P<0.05 was considered to indicate a significant difference.

For data set [2], the system named is BV173. The description is as above. The format is cell-based. Particulars: 5 mM FA-HP-β-CyD or 15 mM HP-β-CyD, chloroquine, bafilomycin A1 or LY294002 (FIG. 8). Here is the method:
as §1, §2, §3, §4, §5

Data set [3] relates to BV173 cells (leukemia cells). The data set can be described thus: Ventricular invasion mouse model (leukemic invasion of the central nervous system). Format: in vivo, BRJ mice. The following applies: HP-β-CyD 30 mg/kg. How it is done: Here, the effect of HP-β-CyD and FA-HP-β-CyD on leukemic central nervous system invasion was test by constructing a mouse model.
BRJ mice (female) were anesthetized (intraperitoneal administration (IP) of 100 μL of a triple anesthetic of medetomidine hydrochloride (0.75 mg/kg), mitazolam (4 mg/kg), and butorphanol tartrate (5 mg/kg)), and intrathecal transplantation was carried out, through the right coronal suture at a point 1 mm to the right of the center line defined by the sagittal suture, with a polyethylene stop tube-equipped microsyringe designed to inject BV173 cells (leukemia cells) precisely to a depth of 3 mm using a Hamilton syringe LT type needle tip style pst-3 and 25 gauge.
The FA-HP-β-CyD synthesized in Example 1 was used in this example.
The doses were set at 30 mg/kg for HP-β-CyD and 3 mg/kg for FA-HP-β-CyD by referring to the dose of HP-β-CyD for a mouse model of the hereditary lipid storage disease Niemann-Pick disease type C (NPC) (Int. J. Mol. Sci. 2021, 22, 452. https://doi.org/10.3390/ijms22010452).
as §5

The test system of data set [4] is BV173. In words: Cellular uptake of TRITC-labelled CyD, confocal microscopy. The format is cell-based. The following applies: confocal microscopy (FIG. 6). How it is done: The cellular uptake of FA-HP-β-CyD was evaluated as follows.
A leukemia cell line (BV173) was used in this example. The FA-HP-β-CyD synthesized in Example 1 was used.
10 mg HP-β-CyD or FA-HP-β-CyD and 1 mg of TRITC were dissolved in 400 μL of dimethyl sulfoxide (DMSO) with stirring for 24 hours and the solution was then gradually poured into acetone. A precipitate was obtained and was washed with water. This was freeze-dried to prepare TRITC-HP-β-CyD and TRITC-FA-HP-β-CyD.
The cells were then cultured at a cell density of 4×10e5 per well on a 6-well plate and were incubated with […], TRITC-HP-β-CyD, FA-HP-β-CyD, or HP-βCyD at different concentrations. A Zeiss LSM880 confocal microscope was used to observe the cells. Imaris (Zeiss) fluorescent image analysis software was used for analysis.
The Control refers to incubation at the same time as the other exposure groups, but without exposure to an agent. Cell localization was stained by DAPI and the cell membrane was stained with PlasMen Bright Green, and the cellular uptake of TRITC-FA-HP-β-CyD was evaluated using confocal microscopy.

In the next data set the test system is Ba/F3 P210. In words: Cell proliferation inhibition, modified MTT assay (Cell Counting Kit-8). The format is cell-based. Particulars: Ba/F3 P210, incubation for 72 hours, average±SD of 3 independent experiments. How it is done: (§6) The proliferation inhibitory action in leukemia cell lines was evaluated using a modified dimethyl-thiazole-diphenyl-tetrazolium (MTT) assay as follows.
(§7) The hepatocyte line and leukemia cell lines (K562, BV173, Ba/F3 p190, Ba/F3 p210, MYL-R, K562-IMR, and KBM5-STI) were used in this example. The FA-HP-β-CyD synthesized in Example 1 was used.
(§8) The cell viability was evaluated using the trypan blue dye exclusion method. Cell proliferation was evaluated using a Cell Counting Kit-8 (Dojindo, Japan), which is an MTT assay. 2×10^4 of each cell was seeded with 100 μL RPMI1640 medium (Sigma-Aldrich, USA) per well to a flatbottom 96-well plate (Greiner Labortechnik, Hamburg, Germany), and incubation for 72 hours was carried out with exposure to HP-β-CyD and FA-HP-β-CyD at different concentrations (0 mM (control: CT), 0.05 mM, 0.1 mM, 0.25 mM, 0.5 mM, and 1 mM).

Another data set deals with KBM5-STI. Described as above. The format is cell-based. Particulars: incubation for 72 hours, average±SD of 3 independent experiments. Here is the method:
as §6, §7, §8

For data set [5], the system named is K562. The data set is described as above. The format is cell-based. Particulars: K562, incubation for 72 hours, average±SD of 3 independent experiments. How it is done:
as §6, §7, §8

In a further data set the test system is K562-IMR. The data set is described as above. The format is cell-based. Particulars: incubation for 72 hours, average±SD of 3 independent experiments. How it is done: as §6, §7, §8
In another data set the test system is MYL-R. Described as above. Particulars: incubation for 72 hours, average±SD of 3 independent experiments. Format: cell-based. How it is done:
as §6, §7, §8

Data set [6] concerns BV173. The data set is described as above. The format is cell-based. The following applies: BV173, incubation for 72 hours, average±SD of 3 independent experiments. How it is done: as §6, §7, §8
The next data set deals with Ba/F3 P190. The description is as above. Format: cell-based. Particulars: Ba/F3 P190, incubation for 72 hours, average±SD of 3 independent experiments. Here is the method:
as §6, §7, §8

A further data set relates to hepatocyte. The description is as above. The format is cell-based. Particulars: hepatocyte line, incubation for 72 hours, average±SD of 3 independent experiments. How it is done: as §6, §7, §8
The subject of a further data set is A549. The data set can be described thus: Proliferation inhibitory action on low folate receptor-expressing cells (MTT assay). The format is cell-based, human. Particulars: A549, 2.5-10 mM, 72 hours (FIG. 3). Here is the method:
The proliferation inhibitory action on A549, a low folate receptor-expressing cell, was evaluated as follows.
A human non-small cell lung cancer cell line (A549) was used in this example. The FA-HP-β-CyD synthesized in Example 1 was used.
For cell proliferation, 2×10^4 cells of the […] were seeded with 100 μL DMEM medium (Sigma-Aldrich, USA) per well to a flatbottom 96-well plate (Greiner Labortechnik, Hamburg, Germany), and incubation for 72 hours was carried out with exposure to HP-β-CyD and FA-HP-β-CyD at different concentrations (0 mM (control: CT), 2.5 mM, 5 mM, 7.5 mM, and 10 mM). Evaluation was then carried out using a dimethyl-thiazole-diphenyl-tetrazolium (MTT) assay (Nacalai Tesque, Japan).
For orientation: Formazan colour is commonly taken as a measure of viable cells.

As usually defined, the IC50 is the concentration that inhibits the measured activity by half. A high value points to weaker potency. Consider “2-hydroxypropyl-β-cyclodextrin [HP-β-CyD, reference compound]”, for which the “cell proliferation inhibitory capability on addition of an autophagy inhibitor” value in the data set on K562 [1] and in the data set on BV173 [2] was “such an effect is absent” throughout. Further, in data set [3] (FIG. 14 compared with FIG. 13, FA-HP-β-CyD 3 mg/kg), the “survival in two-time administration model compared with one-time administration model” value was “an extension in survival was not observed”. Besides, the “P versus the vehicle group (survival)” value worked out at 0.182 in data set [3] (administered two times, first and second week, FA-HP-β-CyD 3 mg/kg (FIG. 14)); 0.0746 in data set [3] (single administration in the second week, FA-HP-β-CyD 3 mg/kg (FIG. 13)). The cellular uptake entry in the data set with BV173 [4] is listed as “almost no cellular intake”. Besides, the IC50 in the data set on Ba/F3 P210 worked out at 9.21 ± 0.054 mM; in the data set on KBM5-STI it was 6.64 ± 0.18 mM; in the data set with K562 [5] it was 5.65 ± 0.96 mM; in the data set on K562-IMR it was 3.51 ± 0.12 mM; in the data set with MYL-R, 8.17 ± 0.15 mM; with BV173 [6] it was 3.46 ± 0.33 mM. Besides, the IC50 in the data set on Ba/F3 P190 was determined as 8.04 ± 0.71 mM; in the data set on hepatocyte, 12.9 ± 2.73 mM. For the same substance, the “cytotoxic / antitumor activity on A549 low folate receptor-expressing cells” value in the data set with A549 is listed as “strong cytotoxic activity”.
